Measured values taken from patent publication US20110129467A1, “THERAPEUTIC COMBINATION COMPRISING AN AURORA KINASE INHIBITOR AND ANTIPROLIFERATIVE AGENTS” (NERVIANO MEDICAL SCIENCES S.R.L., priority 2008, published 2011).
Read-outs that look alike come from different tables or passages of the source.

How the values were obtained:
[1] = tested on: HL-60 human acute myeloid leukaemia cells; details: HL-60 sc in SCID mice; for T-C: delay vs control to reach 1 g
Procedure: The treatment started 12 days later tumor cells injection when tumors were palpable.
When combined, Compound 1 was administered in the interval between the bortezomib treatments at days 13, 14, 15, 17, 18, 19, 21, 22, 23, 25, 26 and 27. […] Tumor growth was assessed by caliper.

[2] = tested on: HL-60 human acute myeloid leukaemia cells; details: HL-60 model; previously demonstrated; cited from earlier work
[3] = tested on: DU145 prostate carcinoma cells; experiment: In vivo antitumor efficacy, DU145 prostate carcinoma subcutaneous xenograft in athymic mice; details: Compound 1 15 mg/kg ip BID, Bevacizumab 20 mg/kg ip days 9, 13, 17; for Time to reach 1 g / T-C: DU145 sc in athymic mice; for T-C: delay vs control to reach 1 g
Procedure: Balb, Nu\Nu male mice, from Harlan (Italy), were maintained in cages with paper filter cover, food and bedding sterilized and water acidified. 2.5×10^6 DU145 prostate carcinoma cells (from the American Type Culture Collection) were injected subcutaneously in athymic mice. […] The treatment started at day 9 after cell injection, when tumors were palpable with a tumor weight mean for all the groups of 0.15 g.
Bevacizumab was administered intraperitoneally in a volume of 10 ml/kg at the dose of 20 mg/kg on days 9, 13, 17 from the days of tumor cells injection. […] Tumor growth and body weight were measured every 3 days. Tumor growth was assessed by caliper. […] This delay (T-C value) was defined as the difference of time (in days) required for the treatment group (T) and the control group(C) tumors to reach a predetermined size (1 g). Toxicity was evaluated on the basis of body weight reduction.

[4] = tested on: DU145 prostate carcinoma cells; details: previously demonstrated (The Prostate 36: 1-10, 1998); cited from earlier work
[5] = Bortezomib 1 mg/kg iv days 12, 16, 20, 24 (combination: + Compound 1 15 mg/kg ip)
[6] = Compound 1 15 mg/kg ip BID, Bortezomib 0.5 mg/kg iv days 12, 16, 20, 24

| Compound | Time to reach 1 g [1, 5] [days] | Time to reach 1 g [1, 6] [days] | T-C [1, 5] [days] | T-C [1, 6] [days] | effect on growth of the tumor model in vivo [2] | Time to reach 1 g [3] [days] | T-C [3] [days] | effect on angiogenesis and growth of the tumor model in vivo [4] | Toxicity ([3]; evaluated on body weight reduction) |
| --- | --- | --- | --- | --- | --- | --- | --- | --- | --- |
| CC(C)C[C@H](NC(=O)[C@H](Cc1ccccc1)NC(=O)c1cnccn1)B(O)O [Bortezomib] | 23.8 | 19 | 8.2 | 3.4 |  |  |  |  |  |
| CO[C@@H](C(=O)N1Cc2[nH]nc(NC(=O)c3ccc(N4CCN(C)CC4)cc3)c2C1)c1ccccc1 [Compound 1, N-{5-[(2R)-2-methoxy-2-phenylethanoyl]-1,4,5,6-tetrahydropyrrolo[3,4-c]pyrazol-3-yl}-4-(4-methylpiperazin-1-yl)benzamide] |  | 24.7 |  | 9.1 | inhibits growth of the model in vivo | 23.9 | 8.5 |  |  |
| Bevacizumab: antibody to vascular endothelial growth factor; marketed as Avastin |  |  |  |  |  | 18.5 | 3.1 | inhibits angiogenesis and growth of the model in vivo | 0/8 |
